Columns and labels:
Test in all cases: microbe, parasite or virus in culture
A(H1N1)pdm09 viruses = assay type: cell-based, influenza A(H1N1)pdm09 virus; details: Influenza A virus, H1N1, read-out: median IC50
A(H3N2) viruses = assay type: cell-based; details: Influenza A virus, H3N2, read-out: median IC50
[1] = test system: B/Victoria-lineage viruses; assay type: cell-based; details: Influenza B virus, read-out: median IC50
[2] = test system: B/Yamagata-lineage viruses; assay type: cell-based; details: Influenza B virus, read-out: median IC50

O=C1c2c(O)c(=O)ccn2N([C@@H]2c3ccccc3SCc3c2ccc(F)c3F)[C@@H]2COCCN12 [Baloxavir, baloxavir acid]
IC50 (A(H1N1)pdm09 viruses): 0.28 nM
IC50 (A(H3N2) viruses): 0.16 nM
IC50 [1]: 3.42 nM
IC50 [2]: 2.43 nM

From PMC6291754 (Frontiers in Microbiology, 2018)
